Experimental data as given in patent publication EP4596536A1 (Shanghai de Novo Pharmatech Co., Ltd., priority 2022, dated 2024).

Assays:
TLR8 = biological target: T1, TLR8 (Homo sapiens, UniProt Q9NR97); test: HEK-BLUE-hTLR8 cell SEAP reporter assay (Quanti-Blue); format: cell-based; conditions: HEK-BLUE-hTLR8 cells, 0.5 nM to 15 µM, 24 hours
T1 construct: host or cells: HEK293 (HEK-BLUE-hTLR8)
T1 sequence (Q9NR97 27-1041): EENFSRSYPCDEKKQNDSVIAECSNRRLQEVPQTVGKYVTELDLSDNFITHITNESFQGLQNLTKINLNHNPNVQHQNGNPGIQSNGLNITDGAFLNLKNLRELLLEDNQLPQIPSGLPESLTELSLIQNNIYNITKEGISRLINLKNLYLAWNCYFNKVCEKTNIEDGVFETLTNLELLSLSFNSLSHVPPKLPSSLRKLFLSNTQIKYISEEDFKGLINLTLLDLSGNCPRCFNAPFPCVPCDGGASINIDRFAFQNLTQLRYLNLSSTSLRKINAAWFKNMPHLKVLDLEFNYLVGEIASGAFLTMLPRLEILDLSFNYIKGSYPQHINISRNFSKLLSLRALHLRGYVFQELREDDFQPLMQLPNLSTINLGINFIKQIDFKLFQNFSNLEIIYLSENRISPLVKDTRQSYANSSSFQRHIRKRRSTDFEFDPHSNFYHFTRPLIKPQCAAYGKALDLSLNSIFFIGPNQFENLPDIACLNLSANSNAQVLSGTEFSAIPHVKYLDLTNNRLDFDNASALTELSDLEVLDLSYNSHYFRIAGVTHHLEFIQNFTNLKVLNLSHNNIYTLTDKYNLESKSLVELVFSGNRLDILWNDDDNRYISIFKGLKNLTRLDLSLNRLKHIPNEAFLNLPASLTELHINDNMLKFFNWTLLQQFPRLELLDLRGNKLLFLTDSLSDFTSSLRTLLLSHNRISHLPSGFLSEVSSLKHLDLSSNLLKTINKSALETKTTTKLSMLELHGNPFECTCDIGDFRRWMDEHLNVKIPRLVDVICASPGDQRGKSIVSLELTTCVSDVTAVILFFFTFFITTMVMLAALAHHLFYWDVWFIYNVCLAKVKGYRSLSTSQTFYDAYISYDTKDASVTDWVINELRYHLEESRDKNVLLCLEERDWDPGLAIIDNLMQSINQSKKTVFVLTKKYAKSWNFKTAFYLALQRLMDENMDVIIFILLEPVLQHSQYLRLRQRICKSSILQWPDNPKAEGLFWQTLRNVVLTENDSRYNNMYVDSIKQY
Procedure: (§1) In this experiment, the biological activity of TLR7 and TLR8 in the compound of formula I was detected using cell tests. This method was conducted in human embryonic kidney cells (HEK293) expressing TLR family members such as TLR4, TLR7, TLR8 or TLR9. TLR agonists activate TLRs, triggering the activation of downstream NF-kB, which in turn activates the secreted embryonic alkaline phosphatase (SEAP) reporter gene. The activity of SEAP was detected using the Quanti-Blue (InvivoGen) reagent, thereby reflecting the activities of TLR7 and TLR8 agonists.
(§2) The detailed experimental method was as follows: HEK-BLUE-hTLR7 and HEK-BLUE-hTLR8 cell lines were purchased from Invivogen Company and cultured in DMEM medium containing 4.5 g/L glucose (Sigma-Aldrich) and 10% fetal bovine serum under the conditions of temperature 37°C, humidity 95% and 5% CO2.
(§3) The compound was tested at a concentration ranging from 0.5 nM to 15 µM over a total of 10 concentration gradients. TLR7 or TLR8 agonists with known activity were added as positive controls, and 1 µL of DMSO was added as a negative control.
(§4) The cells were treated as follows: the cells were removed from the culture dish and centrifuged to remove the medium, and resuspended in a T-150 bottle with 10 mL of preheated PBS, 12 mL of preheated medium was added, and the cells were gently pipetted up and down and counted under a microscope. A 200,000/mL single-cell suspension was immediately prepared with medium and added to a 96-well plate at 200 µL/well (40,000/well). The final concentration of DMSO was 0.5%.
(§5) The compound was added and incubated in an incubator at 37°C, 5% CO2 for 24 hours.
(§6) A supernatant at 20 µL/well was aspirated into 180 µL of preheated Quanti-Blue at 37°C, incubated at 37°C for 1.5 hours, and detected for the absorbance (OD value) with a spectrophotometer at 650 nm. The formula for calculating the agonistic effect is as follows:
(§7) Effect % = (average OD value of the drug-administered group - average OD value of the DMSO group) / (average OD value of the positive drug group - average OD value of the DMSO group) × 100
(§8) Graphpad software was used to fit the concentration-effect curve, and EC50 was calculated. The test results are shown in Table 15 (A denotes < 250 nM, B denotes 250 nM-1 µM, C denotes 1 µM-2 µM, D denotes > 2 µM, and - denotes not listed or not tested): Table 15

TLR7 = biological target: T2, TLR7 (Homo sapiens, UniProt Q9NYK1); test: HEK-BLUE-hTLR7 cell SEAP reporter assay (Quanti-Blue); format: cell-based; conditions: HEK-BLUE-hTLR7 cells, 0.5 nM to 15 µM, 24 hours
T2 construct: host or cells: HEK293 (HEK-BLUE-hTLR7)
T2 sequence (Q9NYK1 27-1049): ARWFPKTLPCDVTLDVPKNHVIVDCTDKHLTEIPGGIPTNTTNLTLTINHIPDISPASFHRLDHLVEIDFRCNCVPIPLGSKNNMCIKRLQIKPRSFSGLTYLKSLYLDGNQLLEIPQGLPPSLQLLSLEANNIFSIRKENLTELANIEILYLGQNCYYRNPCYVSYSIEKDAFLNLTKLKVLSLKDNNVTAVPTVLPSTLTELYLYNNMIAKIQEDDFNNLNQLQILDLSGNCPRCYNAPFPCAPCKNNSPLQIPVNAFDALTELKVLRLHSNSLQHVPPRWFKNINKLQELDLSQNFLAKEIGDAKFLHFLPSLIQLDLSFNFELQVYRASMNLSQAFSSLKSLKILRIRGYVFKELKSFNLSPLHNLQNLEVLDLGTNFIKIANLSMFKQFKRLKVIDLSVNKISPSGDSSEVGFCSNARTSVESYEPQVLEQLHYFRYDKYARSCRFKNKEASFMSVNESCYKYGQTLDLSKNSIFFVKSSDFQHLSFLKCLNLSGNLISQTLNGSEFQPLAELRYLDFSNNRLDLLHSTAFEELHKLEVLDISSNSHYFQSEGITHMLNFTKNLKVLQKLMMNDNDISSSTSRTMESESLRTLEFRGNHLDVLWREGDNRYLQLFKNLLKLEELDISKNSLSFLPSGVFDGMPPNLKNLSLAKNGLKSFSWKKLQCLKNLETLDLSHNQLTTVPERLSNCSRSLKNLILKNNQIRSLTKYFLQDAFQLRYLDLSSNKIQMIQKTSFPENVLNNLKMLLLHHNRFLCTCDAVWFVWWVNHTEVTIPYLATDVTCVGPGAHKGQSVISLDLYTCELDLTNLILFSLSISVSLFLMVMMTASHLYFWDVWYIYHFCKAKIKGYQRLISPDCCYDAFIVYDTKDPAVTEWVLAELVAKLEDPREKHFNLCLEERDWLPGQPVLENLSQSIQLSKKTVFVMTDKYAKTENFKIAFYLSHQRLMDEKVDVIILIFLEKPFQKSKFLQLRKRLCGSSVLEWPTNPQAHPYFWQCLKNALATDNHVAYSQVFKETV
Procedure: as §1, §2, §3, §4, §5, §6, §7, §8

Compound	EC50 (TLR8)	EC50 (TLR7)
CCCN(CCC)C(=O)C1=Cc2ccc(C3(C(=O)Nc4cnc5c(c4)CNCC5)CC3)cc2N=C(N)C1 [Compound 1, 2-amino-N,N-dipropyl-8-(1-((5,6,7,8-tetrahydro-1,6-naphthyridin-3-yl)carbamoyl)cyclopropyl)-3H-benzo[b]azepine-4-formamide]	< 250 nM	> 2000 nM
CCCN(CCO)C(=O)C1=Cc2ccc(C3(C(=O)Nc4cncc(CN)c4)CC3)cc2N=C(N)C1 [Compound 7, 2-amino-8-(1-((5-(aminomethyl)pyridin-3-yl)carbamoyl)cyclopropyl)-N-(2-hydroxyethyl)-N-propyl-3H-benzo[b]azepine-4-formamide]	< 250 nM	> 2000 nM

Now from value to molecule:

EC50 (TLR8)	EC50 (TLR7)	Compound
250 to 1000 nM	> 2000 nM	CCCN(CCO)C(=O)C1=Cc2ccc(C3(C(=O)Nc4cnc5c(c4)CNCC5)CC3)cc2N=C(N)C1 [Compound 2, 2-amino-N-(2-hydroxyethyl)-N-propyl-8-(1-((5,6,7,8-tetrahydro-1,6-naphthyridin-3-yl)carbamoyl)cyclopropyl)-3H-benzo[b]azepine-4-formamide]
< 250 nM	> 2000 nM	CCCN(CCC)C(=O)C1=Cc2c(F)cc(C3(C(=O)Nc4cnc5c(c4)CNCC5)CC3)cc2N=C(N)C1 [Compound 3, 2-amino-6-fluoro-N,N-dipropyl-8-(1-((5,6,7,8-tetrahydro-1,6-naphthyridin-3-yl)carbamoyl)cyclopropyl)-3H-benzo[b]azepine-4-formamide]
250 to 1000 nM	> 2000 nM	CCCN(CCO)C(=O)C1=Cc2c(F)cc(C3(C(=O)Nc4cnc5c(c4)CNCC5)CC3)cc2N=C(N)C1 [Compound 6, 2-amino-6-fluoro-N-(2-hydroxyethyl)-N-propyl-8-(1-((5,6,7,8-tetrahydro-1,6-naphthyridin-3-yl)carbamoyl)cyclopropyl)-3H-benzo[b]azepine-4-formamide]
